Experimental data published in US10758534B2 (Vertex Pharmaceuticals Incorporated, priority 2014, dated 2020).

Biological target: T1, F508del (Homo sapiens, UniProt P13569, DEL508-508)
T1 construct: expressed in transfected cells
Experiment: Protocol 1: membrane potential optical assay (FLIPR III, voltage sensing dye), identification of potentiator compounds
Format: cell-based
Conditions: Table 3, compounds of Table 1
How it was run: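 Membrane potential in forskolin-activated, temperature-rescued F508del NIH 3T3 cells is followed with a voltage-sensing dye on FLIPR III. A chloride ion gradient created at the single addition step provides the driving force, after prior compound treatment.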

T1 sequence (P13569 with tags, fused parts or gaps DEL508-508): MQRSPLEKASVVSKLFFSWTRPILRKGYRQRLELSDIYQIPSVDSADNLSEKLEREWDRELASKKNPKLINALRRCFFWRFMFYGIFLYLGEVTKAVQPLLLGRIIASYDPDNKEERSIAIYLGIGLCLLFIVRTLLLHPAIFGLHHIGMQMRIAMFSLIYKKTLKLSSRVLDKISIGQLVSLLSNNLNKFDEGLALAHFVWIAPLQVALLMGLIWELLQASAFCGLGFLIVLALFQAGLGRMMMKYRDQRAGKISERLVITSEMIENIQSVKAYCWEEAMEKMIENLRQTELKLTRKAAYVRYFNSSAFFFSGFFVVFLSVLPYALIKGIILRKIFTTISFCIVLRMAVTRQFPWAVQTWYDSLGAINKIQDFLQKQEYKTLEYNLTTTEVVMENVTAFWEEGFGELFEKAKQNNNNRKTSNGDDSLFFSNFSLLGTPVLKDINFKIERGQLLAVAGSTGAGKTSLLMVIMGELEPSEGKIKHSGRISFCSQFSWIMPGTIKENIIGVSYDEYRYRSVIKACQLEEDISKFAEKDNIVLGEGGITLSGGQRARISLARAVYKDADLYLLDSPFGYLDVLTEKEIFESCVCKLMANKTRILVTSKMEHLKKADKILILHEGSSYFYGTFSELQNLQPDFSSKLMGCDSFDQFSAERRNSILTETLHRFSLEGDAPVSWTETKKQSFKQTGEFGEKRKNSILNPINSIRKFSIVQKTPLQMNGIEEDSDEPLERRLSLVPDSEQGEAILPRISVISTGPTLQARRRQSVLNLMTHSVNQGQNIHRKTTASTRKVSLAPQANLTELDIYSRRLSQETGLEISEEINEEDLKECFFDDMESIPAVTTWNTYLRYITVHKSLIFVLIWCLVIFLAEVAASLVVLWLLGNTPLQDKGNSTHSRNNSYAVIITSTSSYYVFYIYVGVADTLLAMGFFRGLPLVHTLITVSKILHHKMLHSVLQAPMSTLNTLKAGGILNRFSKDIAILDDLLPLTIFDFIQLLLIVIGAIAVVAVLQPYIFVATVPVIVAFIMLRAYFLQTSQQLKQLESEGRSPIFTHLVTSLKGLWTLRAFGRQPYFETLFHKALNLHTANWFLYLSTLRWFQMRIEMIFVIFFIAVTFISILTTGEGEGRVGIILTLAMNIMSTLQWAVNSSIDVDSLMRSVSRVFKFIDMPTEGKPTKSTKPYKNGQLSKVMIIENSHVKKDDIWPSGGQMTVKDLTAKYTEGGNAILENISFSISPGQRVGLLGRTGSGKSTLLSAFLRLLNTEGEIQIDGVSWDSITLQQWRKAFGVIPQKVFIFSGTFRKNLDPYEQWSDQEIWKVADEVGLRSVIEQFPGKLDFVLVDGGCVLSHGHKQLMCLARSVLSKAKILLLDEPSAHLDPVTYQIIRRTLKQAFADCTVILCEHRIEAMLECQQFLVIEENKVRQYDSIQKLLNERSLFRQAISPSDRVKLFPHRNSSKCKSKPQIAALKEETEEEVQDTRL

How did the EC30 turn out when `CC(C)COc1cc(F)cc(-c2ccc(C(=O)NS(=O)(=O)c3ccn[nH]3)c(N3CCC(C)(C)C3C)n2)c1` (stereo not drawn) [Compound 952, 6-(3-fluoro-5-isobutoxy-phenyl)-N-(1H-pyrazol-5-ylsulfonyl)-2-(2,3,3-trimethylpyrrolidin-1-yl)pyridine-3-carboxamide] was run?
Its EC30 is “+++ (“+++” means <3 uM)”.

How did the EC30 turn out when `CC(C)COc1cc(F)cc(-c2ccc(C(=O)NS(=O)(=O)c3cccc(N)n3)c(N3CCCC4(CC4)C3)n2)c1` [Compound 953, N-[(6-amino-2-pyridyl)sulfonyl]-2-(7-azaspiro[2.5]octan-7-yl)-6-(3-fluoro-5-isobutoxy-phenyl)pyridine-3-carboxamide] was run?
The EC30 was “+++ (“+++” means <3 uM)”.

Which EC30 does the source give for `C#CC1CCCN(c2nc(-c3ccc(OC(C)C)nc3)ccc2C(=O)NS(=O)(=O)c2cccc(N)n2)C1` (stereo not drawn) [Compound 954, N-[(6-amino-2-pyridyl)sulfonyl]-2-(3-ethynyl-1-piperidyl)-6-(6-isopropoxy-3-pyridyl)pyridine-3-carboxamide] here?
Its EC30 is “+++ (“+++” means <3 uM)”.

With `CCCOc1cccc(-c2ccc(C(=O)NS(=O)(=O)c3ccc[nH]c3=O)c(Oc3c(C)cc(C)cc3C)n2)c1Cl` [Compound 955, 6-(2-chloro-3-propoxy-phenyl)-N-[(2-oxo-1H-pyridin-3-yl)sulfonyl]-2-(2,4,6-trimethylphenoxy)pyridine-3-carboxamide] as the molecule, how does the EC30 read?
The EC30 was “++ (“++” means between 3 uM and 10 uM)”.

With `COc1ccc(-c2ccc(C(=O)NS(=O)(=O)c3cccc(N)n3)c(Oc3c(C)cc(C)cc3C)n2)c(F)c1` [Compound 956, N-[(6-amino-2-pyridyl)sulfonyl]-6-(2-fluoro-4-methoxy-phenyl)-2-(2,4,6-trimethylphenoxy)pyridine-3-carboxamide] as the molecule, how does the EC30 read?
Its EC30 is “+++ (“+++” means <3 uM)”.

Which EC30 does the source give for `CC(C)COc1cccc(-c2ccc(C(=O)NS(=O)(=O)c3cccc(N)n3)c(N3[C@H](C)CC[C@@H]3C)n2)c1` [Compound 957, N-[(6-amino-2-pyridyl)sulfonyl]-2-[(2S,5R)-2,5-dimethylpyrrolidin-1-yl]-6-(3-isobutoxyphenyl)pyridine-3-carboxamide] here?
Its EC30 is “+++ (“+++” means <3 uM)”.

Which EC30 does the source give for `CC(C)COc1cccc(-c2ccc(C(=O)NS(=O)(=O)c3ccc[nH]c3=O)c(N3CCC(C)CC3)n2)c1` [Compound 958, 6-(3-isobutoxyphenyl)-2-(4-methyl-1-piperidyl)-N-[(2-oxo-1H-pyridin-3-yl)sulfonyl]pyridine-3-carboxamide] here?
The EC30 was “+++ (“+++” means <3 uM)”.

For `COc1cc(C(C)(C)C)nc(Oc2c(C)cc(C)cc2C)c1C(=O)NS(=O)(=O)c1cccc(N)c1` [Compound 959, N-(3-aminophenyl)sulfonyl-6-tert-butyl-4-methoxy-2-(2,4,6-trimethylphenoxy)pyridine-3-carboxamide], which EC30 is on record?
The EC30 was “+++ (“+++” means <3 uM)”.

Which EC30 does the source give for `CCOC1CCCN(c2nc(-c3ccc(OC(C)C)nc3)ccc2C(=O)NS(=O)(=O)c2cccc(N)n2)C1` (stereo not drawn) [Compound 960, N-[(6-amino-2-pyridyl)sulfonyl]-2-(3-ethoxy-1-piperidyl)-6-(6-isopropoxy-3-pyridyl)pyridine-3-carboxamide] here?
The EC30 was “++ (“++” means between 3 uM and 10 uM)”.

`CC(C)COc1cc(F)cc(-c2ccc(C(=O)NS(=O)(=O)c3cccc(N)n3)c(OC3CCC(F)(F)CC3)n2)c1` [Compound 961, N-[(6-amino-2-pyridyl)sulfonyl]-2-(4,4-difluorocyclohexoxy)-6-(3-fluoro-5-isobutoxy-phenyl)pyridine-3-carboxamide] was tested. Which EC30 did it give?
The EC30 was “+++ (“+++” means <3 uM)”.

How did the EC30 turn out when `Cc1cc(C)c(Oc2nc(-c3ccc(CN(C)C)cc3)ccc2C(=O)NS(=O)(=O)c2cccc(N)n2)c(C)c1` [Compound 962, N-[(6-amino-2-pyridyl)sulfonyl]-6-[4-(dimethylaminomethyl)phenyl]-2-(2,4,6-trimethylphenoxy)pyridine-3-carboxamide] was run?
Its EC30 is “++ (“++” means between 3 uM and 10 uM)”.

How did the EC30 turn out when `CCc1ccc(C(=O)NS(=O)(=O)c2cccc(N)n2)c(Oc2c(C)cc(C)cc2C)n1` [Compound 963, N-[(6-amino-2-pyridyl)sulfonyl]-6-ethyl-2-(2,4,6-trimethylphenoxy)pyridine-3-carboxamide] was run?
The EC30 was “++ (“++” means between 3 uM and 10 uM)”.
